According to patent US6169181A, “Compounds useful to treat retroviral infections” (Pharmacia & Upjohn Company, priority 1998, dated 2001):
Several values for one entry are separate records, joined by “and”; a condition that tells them apart may be missing. Equal entries are not always repeated. Where two headings read alike, the source gives them in different places.

Assays:
[1] = target: T1, single chain tethered (tandem) HIV protease (HIV-1 M:B_HXB2R, UniProt P04585); assay: Tandem HIV protease assay; assay type: biochemical; conditions: read-out: FITC KI; Table II; enzyme HIV1TANDEM
T1 construct: purified enzyme, FITC/biotin substrate assay
Outline: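 Covalently tethered single-chain HIV protease dimer allows very low enzyme levels for Ki measurement. N-biotinylated, C-fluorescein-labelled peptide substrate incubated with enzyme and inhibitor at pH 5.5 in the dark for 96 h; streptavidin beads stop reaction, cleaved product filtered off and residual fluorescence fitted to obtain Ki.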

[2] = target: HIV-1 protease (Human immunodeficiency virus type 1 group M subtype B, UniProt P04585); assay: biochemical
Outline: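 A substrate biotinylated at the N-terminal arginine and FITC-labelled at the C-terminal lysine was incubated with HIV-1 protease (10 μl of 0.1 μM) and compound for 1 h in the dark at room temperature. Buffer was 0.1 M sodium acetate pH 5.5, 1.0 M NaCl, 0.05% NP-40. Labelled product was separated from substrate using streptavidin beads and filtration, and the fluorescence gave percent inhibition.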

[3] = Table II, enzyme HIV-1, DOSE 0.123 (unit not given)
[4] = Table II, enzyme HIV-1, DOSE 0.370 (unit not given)
[5] = Table II, enzyme HIV-1, DOSE 1.100 (unit not given)
[6] = Table II, enzyme HIV-1, DOSE 3.300 (unit not given)
[7] = Table II, enzyme HIV-1, DOSE 10.000 (unit not given)
[8] = Table II, enzyme HIV-1, DOSE 30.000 (unit not given)

Row | Structure (SMILES) | Ki [1] [pM] | PROTEASE % INHIB. [2, 3] [%] | PROTEASE % INHIB. [2, 4] [%] | PROTEASE % INHIB. [2, 5] [%] | PROTEASE % INHIB. [2, 6] [%] | PROTEASE % INHIB. [2, 7] [%] | PROTEASE % INHIB. [2, 8] [%] | PROTEASE % INHIB. [2]
1 | CCC[C@@]1(CCc2ccccc2)CC(O)=C([C@@H](c2cccc(NS(=O)(=O)c3cn(C)cn3)c2)C(C)(C)C)C(=O)O1 (single isomer, unassigned) [Example 308, N-[3(R or S)-[1-(5,6-Dihydro-4-hydroxy-2-oxo-6(R or S)-[2-phenylethyl]-6-propyl-2H-pyran-3-yl)-2,2-dimethylpropyl]phenyl]-1-methyl-1H-imidazole-4-sulfonamide] | 74 | 75.06 | 108.14 | 95.01 | 108.43 | 110.75 | 96.28 | –
2 | CCC[C@@]1(CCc2ccccc2)CC(O)=C([C@@H](c2cccc(NS(=O)(=O)c3cn(C)cn3)c2)C(C)(C)C)C(=O)O1 (single isomer, unassigned) [Example 310, N-[3(R or S)-[1-(5,6-Dihydro-4-hydroxy-2-oxo-6(R or S)-[2-phenylethyl]-6-propyl-2H-pyran-3-yl)-2,2-dimethylpropyl]phenyl]-1-methyl-1H-imidazole-4-sulfonamide] | 1500 | 16.81 | 50.11 | 78.69 | 100.22 | 124.77 | 110.91 | –
3 | CCC[C@@]1(CCc2ccccc2)CC(O)=C([C@H](CC)c2cccc(NS(=O)(=O)c3ccc(N)cn3)c2)C(=O)O1 (single isomer, unassigned) [Example 314, 5-Amino-N-[3(R or S)-(1-[5,6-dihydro-4-hydroxy-2-oxo-6(R or S)-(2-phenylethyl)-6-propyl-2H-pyran-3-yl]propyl)phenyl]-2-pyridinesulfonamide] | 700 | 82.92 | 96.14 | 114.86 | 100.76 | 88.75 | 73.42 | –
4 | CCC[C@@]1(CCc2ccccc2)CC(O)=C([C@H](CC)c2cccc(NS(=O)(=O)c3ccc(N)cn3)c2)C(=O)O1 (single isomer, unassigned) [Example 315, 5-Amino-N-[3(R or S)-(1-[5,6-dihydro-4-hydroxy-2-oxo-6(R or S)-(2-phenylethyl)-6-propyl-2H-pyran-3-yl]propyl)phenyl]-2-pyridinesulfonamide] | 29 | 79.95 | 87.25 | 88.08 | 97.03 | 100.2 | 106.4 | –
5 | CCC[C@@]1(CCc2ccc(F)cc2)CC(O)=C([C@@H](c2cccc(NS(=O)(=O)c3ccc(N)cn3)c2)C(C)(C)C)C(=O)O1 (single isomer, unassigned) [Example 316, 5-Amino-N-[3(R or S)-(1-[6(R or S)-(2-[4-fluorophenyl]ethyl)-5,6-dihydro-4-hydroxy-2-oxo-6-propyl-2H-pyran-3-yl]-2,2-dimethyl-propyl)phenyl]-2-pyridine-sulfonamide] | 357 | 75.49 | 85.02 | 100.32 | 95.46 | 99.71 | 87.91 | –
6 | CCC[C@@]1(CCc2ccc(F)cc2)CC(O)=C([C@@H](c2cccc(NS(=O)(=O)c3ccc(N)cn3)c2)C(C)(C)C)C(=O)O1 (single isomer, unassigned) [Example 317, 5-Amino-N-[3(R or S)-(1-[6(R or S)-(2-[4-fluorophenyl]ethyl)-5,6-dihydro-4-hydroxy-2-oxo-6-propyl-2H-pyran-3-yl]-2,2-dimethyl-propyl)phenyl]-2-pyridine-sulfonamide] | 40 | 87.38 | 94.14 | 98.45 | 95.97 | 101.26 | 108.59 | –
7 | CCCC1(CCC)CC(O)=C(C(c2cccc(NS(=O)(=O)c3cn(C)cn3)c2)C(C)(C)C)C(=O)O1 (single isomer, unassigned) [Example 318, N-[3(R or S)-(1-[5,6-Dihydro-6,6-dipropyl-4-hydroxy-2-oxo-2H-pyran-3-yl]-2,2-dimethylpropyl)-phenyl]-1-methyl-1H-imidazole-4-sulfonamide] | 19 | 98.06 | 106.35 | 101.88 | 88.73 | 94.49 | 82.83 | –
8 | CCCC1(CCC)CC(O)=C(C(c2cccc(NS(=O)(=O)c3cn(C)cn3)c2)C(C)(C)C)C(=O)O1 (single isomer, unassigned) [Example 319, N-[3(R or S)-(1-[5,6-Dihydro-6,6-dipropyl-4-hydroxy-2-oxo-2H-pyran-3-yl]-2,2-dimethylpropyl)-phenyl]-1-methyl-1H-imidazole-4-sulfonamide] | 29500 | 10.75 | 32.65 | 60.14 | 75.86 | 93.46 | 74.48 | –
9 | CCC[C@@]1(CCc2ccccc2)CC(O)=C([C@H](CC)c2cccc(NS(=O)(=O)c3ccc(C#N)cn3)c2)C(=O)O1 (single isomer, unassigned) [Example 335, N-[3-{1(R or S)-(4-Hydroxy-5,6-dihydro-2-oxo-6(R or S)-phenethyl-6-propyl-2H-pyran-3-yl)propyl}phenyl]-5-cyanopyridine-2-sulfonamide] | 40 | – | – | – | – | – | – | 60.07 and 99.75 and 97.05 and 92.06 and 89.77 and 76.25
10 | CCC[C@]1(CCc2ccccc2)CC(O)=C([C@H](CC)c2cccc(NS(=O)(=O)c3ccc(C#N)cn3)c2)C(=O)O1 (single isomer, unassigned) [Example 336, N-[3-{1(R or S)-(4-Hydroxy-5,6-dihydro-2-oxo-6(S or R)-phenethyl-6-propyl-2H-pyran-3-yl)propyl}phenyl]-5-cyanopyridine-2-sulfonamide] | 32 | – | – | – | – | – | – | 65.64 and 112 and 89.54 and 88.06 and 77.12 and 62.28
11 | CCC[C@]1(CCc2ccccc2)CC(O)=C([C@@H](CC)c2cccc(NS(=O)(=O)c3ccc(C#N)cn3)c2)C(=O)O1 (single isomer, unassigned) [Example 338, N-[3-{1(S or R)-(4-Hydroxy-5,6-dihydro-2-oxo-6(S or R)-phenethyl-6-propyl-2H-pyran-3-yl)propyl]phenyl]-5-cyano-pyridine-2-sulfonamide] | 100 | – | – | – | – | – | – | 61.74 and 85.32 and 80.46 and 89.62 and 83.53 and 62.34
12 | CCC[C@@]1(CCc2ccccc2)CC(O)=C([C@H](CC)c2cccc(NS(=O)(=O)c3cn(C)cn3)c2)C(=O)O1 (single isomer, unassigned) [Example 339, N-[3-{1(R or S)-(4-Hydroxy-5,6-dihydro-2-oxo-6(R or S)-phenethyl-6-propyl-2H-pyran-3-yl)propyl}phenyl]-1-methyl-1H-imidazole-4-sulfonamide] | 120 | – | – | – | – | – | – | 83.49 and 100.6 and 101.42 and 104.71 and 91.38 and 72.86
13 | CCC[C@]1(CCc2ccccc2)CC(O)=C([C@H](CC)c2cccc(NS(=O)(=O)c3cn(C)cn3)c2)C(=O)O1 (single isomer, unassigned) [Example 340, N-[3-{1(R or S)-(4-Hydroxy-5,6-dihydro-2-oxo-6(S or R)-phenethyl-6-propyl-2H-pyran-3-yl)propyl}phenyl]-1-methyl-1H-imidazole-4-sulfonamide] | 60 | – | – | – | – | – | – | 80.58 and 90.49 and 90.16 and 91.57 and 89.49 and 71.99
14 | CCC[C@]1(CCc2ccccc2)CC(O)=C([C@@H](CC)c2cccc(NS(=O)(=O)c3cn(C)cn3)c2)C(=O)O1 (single isomer, unassigned) [Example 342, N-[3-{1(S or R)-(4-Hydroxy-5,6-dihydro-2-oxo-6(S or R)-phenethyl-6-propyl-2H-pyran-3-yl)propyl}phenyl]-1-methyl-1H-imidazole-4-sulfonamide] | 309 | – | – | – | – | – | – | 81.06 and 93.18 and 96.94 and 85.55 and 73.55 and 73.95
15 | CCC[C@@]1(CCc2ccc(F)cc2)CC(O)=C([C@@H](c2cccc(NS(=O)(=O)c3ccc(C#N)cn3)c2)C(C)(C)C)C(=O)O1 (single isomer, unassigned) [Example 345, N-[3-{1(R or S)-(4-Hydroxy-5,6-dihydro-2-oxo-6(R or S)-(2-(4-fluorophenyl)ethyl)-6-propyl-2H-pyran-3-yl)-2,2-dimethyl-propyl}phenyl]-5-cyanopyridine-2-sulfonamide] | 32 | 69.19 | 94.37 | 101.67 | 99.08 | 97.43 | 84.56 | –
16 | CCC[C@@]1(CCc2ccc(F)cc2)CC(O)=C([C@H](c2cccc(NS(=O)(=O)c3ccc(C#N)cn3)c2)C(C)(C)C)C(=O)O1 (single isomer, unassigned) [Example 347, N-[3-{1(S or R)-(4-Hydroxy-5,6-dihydro-2-oxo-6(R or S)-(2-(4-fluorophenyl)ethyl)-6-propyl-2H-pyran-3-yl)-2,2-dimethyl-propyl}phenyl]-5-cyanopyridine-2-sulfonamide] | 13600 | 20.99 | 50.82 | 71.4 | 83 | 90.97 | 87.18 | –
